In article PMC7733455, “A novel multistage antiplasmodial inhibitor targeting Plasmodium falciparum histone deacetylase 1” (Cell Discovery, 2020):
Where two headings read alike, the source gives them in different places.

Key:
[1] = Liver microsome metabolism assay, mouse; type: in vitro ADME
Experimental: Liver microsomes (0.5 mg/mL) were purchased from Corning. Ketanserin was selected as a positive control. The tested compounds were first dissolved in DMSO to a concentration of 10 mM and then diluted to 0.5 mM with acetonitrile. Liver microsome buffer was used to dilute the compounds to a working concentration of 1.5 µM, 30 µL of which was mixed with 15 µL of 6 mM NADPH at 37 °C. At 0, 5, 15, 30, and 45 min after incubation, 135 µL of acetonitrile was added to quench the reaction. The mixture was shaken on a vortex mixer (IKA, MTS 2/4) for 10 min at 600 rpm/min and then centrifuged at 5594× g for 15 min (Thermo Multifuge×3R). The supernatant was diluted 1:1 into distilled water, and analyzed by LC-MS/MS.

[2] = system: P. falciparum 3D7; test: 3-day SYBR Green I growth inhibition assay (GIA), strain 3D7; type: cell-based, Plasmodium falciparum; conditions: Plasmodium falciparum, 3D7, 72 h, read-out: Antiplasmodial activity EC50, 3D7
Experimental: (§1) A 3-day SYBR Green I inhibition EC50 assay was performed as described previously. Briefly, highly synchronized ring-stage parasites by 5% sorbitol (1% parasitemia and 2% hematocrit) were incubated in a 96-well plate with compounds in a total volume of 200 μL. […] The parasites were cultured for 72 h before SYBR Green I staining as described above. The EC50 was calculated by GraphPad Prism. DHA was used as a positive control, and the final concentration of DMSO was 1%.

[3] = system: P. yoelii; test: In vivo efficacy of the five HDAC inhibitor hits in rodent malaria model (Fig. S1c); design: species or system Plasmodium yoelii in BALB/c mice; conditions: i.p., three mice per group
Experimental: Fimepinostat Pinometostat
Sodium Phenylbutyrate 500 50
Givinostat hydrochloride monohydrate
Supplementary Fig. S1 Screening of epigenetic inhibitors against blood-stage P. […]
nM and 500 nM tested compounds compared to that with the DMSO control. b The EC50 values of five compounds against Pf3D7, HepG2 and 293T cells; SIa,EC 50 HepG2/ […]
of P. yoelii in BALB/c mice. Three mice were used in each group. Parasitemia was calculated from at least 5,000 red blood cells (RBCs) by microscopy . Blank, untreated group; PPQ, piperaquine phosphate. The administration route was intraperitoneal (i.p.). The data of a and b are from three independent biological replicates in […]
(also on this page, place not known: BET BromodominHDMHMT […] HDAC SI ±3.2 ±24 ±125 % Parasitemia microscopy. a) […]

[4] = system: parasite histone H3 acetylation; test: Western blot of histone H3 acetylation in parasites; type: cell-based, Plasmodium falciparum; conditions: 4 h treatment of asynchronous 3D7; quisinostat/JX21108 5 and 20 nM, SAHA 500 nM
Experimental: Then the parasite samples were harvested and treated with 0.15% saponin to remove the RBC proteins and sonicated in 1% NP40 lysis buffer. After centrifugation at 12,000× g for 15 min, the supernatant was resuspended in a routine SDS loading buffer. Parasite proteins were separated by 10% SDS-PAGE and transferred onto PVDF membranes (Millipore). […] A2348) followed by a secondary antibody conjugated with HRP (Jackson Immuno Research Laboratories). The chemiluminescent HRP substrate Immobilon Western Kit (Millipore) was used for signal detection.

[5] = Pharmacokinetic assay in mice; type: in vivo, BALB/c mice; conditions: 5 mg/kg i.p.
Experimental: Five female BALB/c mice (6–8 weeks, 18–19 g) per group were purchased from JH Laboratory Animal Co., Ltd. All mice were raised at controlled temperature and humidity and had free access to food and water. Compounds were dissolved in 5% DMSO and diluted with 20% aqueous 2-hydroxypropyl-β-cyclodextrin solution to a stock concentration of 0.5 mg/mL. Each mouse was i.p. injected with the compound solution at a dose of 5 mg/kg. Blood samples collected by anticoagulant (K2EDTA)-containing tubes at 0.25, 0.5, 1, 2, 4, 8, and 24 h after injection were centrifuged at 2000× g at 4 °C for 5 min to obtain plasma. LC-MS/MS analysis of samples was carried out by an ACQUITY UPLC HSS T3 1.8-μm column. The mobile phase was a mixture of phase A (0.1% formic acid in water) and phase B (0.1% formic acid in acetonitrile), which ran in gradient mode at a flow rate of 0.6 mL/min at 60 °C. Mass spectra were obtained on an API6500 triple quadrupole equipped with an ESI source. Propranolol was used as an internal standard. The plasma concentrations of the compounds were analyzed, and the pharmacokinetic parameters were calculated via WinNonlin.

[6] = target: T1, hSirt2 (Homo sapiens, UniProt Q8IXJ6); test: Human HDAC inhibition assay, hSirt2; type: biochemical; conditions: performed only once; read-out: Inhibitory Activity IC50, hSirt2
T1 construct: purchased BPS Bioscience 50013
T1 sequence (Q8IXJ6 whole entry): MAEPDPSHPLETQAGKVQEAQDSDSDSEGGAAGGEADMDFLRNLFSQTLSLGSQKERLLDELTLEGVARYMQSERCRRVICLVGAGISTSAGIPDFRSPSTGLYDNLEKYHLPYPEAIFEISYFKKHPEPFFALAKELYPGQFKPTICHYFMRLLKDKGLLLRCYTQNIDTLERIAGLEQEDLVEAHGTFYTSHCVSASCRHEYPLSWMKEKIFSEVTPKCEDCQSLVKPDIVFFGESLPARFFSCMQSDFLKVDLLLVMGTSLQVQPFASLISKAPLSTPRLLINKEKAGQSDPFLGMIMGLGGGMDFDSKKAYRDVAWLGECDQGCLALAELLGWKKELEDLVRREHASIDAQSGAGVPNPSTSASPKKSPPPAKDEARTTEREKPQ
Experimental: SAHA and suramin were used as positive controls. The tested compounds were dissolved into 20 mM stock in 100% DMSO. […] Ten microliters of trypsin and Ac-peptide substrate/Tris buffer solution were added to start the reaction, followed by a 1-h incubation at room temperature for HDACs 1–3 and 6. Ten microliters of Ac-peptide substrate/Tris buffer solution was added to start the reaction, followed by a 4-h incubation at room temperature and a further 2-h incubation with trypsin solution for HDAC8 and Sirt 2. […] This experiment was performed only once.

[7] = In vitro cytotoxicity analysis (CellTiter-Glo), 293T; conditions: human, 293T cells, Cytotoxicity EC50, 293T, 72 h, CellTiter-Glo
Experimental: (§2) In all, 1% DMSO was used as a negative control. The inhibition of each drug was normalized to that of the DMSO control. EC50 was calculated by GraphPad Prism. Three independent assays with two technical replicates each time were conducted in this experiment.

[8] = system: 293T cells; test: as above; conditions: read-out: Cytotoxicity EC50, 293T; 72 h, CellTiter-Glo
Experimental: as §2

[9] = system: P. falciparum Dd2; test: 3-day SYBR Green I GIA, multidrug-resistant strain Dd2; type: cell-based, Plasmodium falciparum
Experimental: as §1

[10] = In vitro cytotoxicity analysis (CellTiter-Glo), HepG2; conditions: human, HepG2 cells
Experimental: as §2

[11] = system: HepG2 cells; test: as above; conditions: read-out: Cytotoxicity EC50, HepG2; 72 h, CellTiter-Glo
Experimental: as §2

[12] = system: asynchronous 3D7 parasites; test: Time- and dose-dependent parasite inhibition assay; type: cell-based, Plasmodium falciparum
Experimental: Asynchronous parasites (2% parasitemia, 4% hematocrit) were treated with the tested compounds at a concentration of 10, 30, 60, or 100 nM, respectively. At 3, 6, 12, and 24 h post treatment, parasitemia of each sample was detected by flow cytometry to investigate the time-dependent activity. Parasites from the same treatment were further washed to remove compounds, and parasitemia was diluted 1:40 by new RBCs into CM for an additional 4 days of culture. Parasitemia of each sample was detected by flow cytometry as described above to investigate the dose-dependent activity. DMSO was used as a blank control.

[13] = female, BALB/c, mouse, plasma, ip

Cn1cc(CNCC2CCN(c3ncc(C(=O)NO)cn3)CC2)c2ccccc21 [Quisinostat, reference compound]
T1/2 in liver microsomes [1]: 13.31 min
half-life at 1 µM ([1]; mouse, liver microsomes, read-out: T1/2 in liver microsomes): 13.3 min
EC50 [2]: 5.2 ± 0.7 nM
clearing of P. yoelii blood-stage infections [3]: remained effective in clearing P. yoelii blood-stage infections
pan-acetylation levels of parasite histone H3 [4]: greatly increased the pan-acetylation levels of parasite histone H3
CL/F [5]: 462 mL/min/kg
Cmax [5]: 88.7 ng/mL
Tmax [5]: 4.98 min
V/F [5]: 245 L/kg
plasma concentration ([5]; during 8–12 h after administration): ~ 2.5 ng/mL
AUC(0-inf) [5, 13]: 180 ng·h/mL
AUC(0-t) [5, 13]: 157 ng·h/mL
half-life [5, 13]: 368 min
IC50 [6]: > 10000 nM
EC50 at 72 h [7]: 42 nM
EC50 [8]: 48 ± 1 nM
EC50 ([9]; Plasmodium falciparum, DD2, 72 h, read-out: Antiplasmodial activity EC50, Dd2, 3-day SYBR Green I GIA, multidrug-resistant strain Dd2): 7.1 nM
EC50 ([9]; read-out: Antiplasmodial activity EC50, Dd2, 3-day SYBR Green I GIA, multidrug-resistant strain Dd2): 7.09 ± 0.01 nM
EC50 at 72 h [10]: 48 nM
EC50 [11]: 42 ± 10 nM
parasitemia measured 4 days after 6-h treatment ([12]; 6-h treatment, washed, 1:40 dilution, 4 days culture): substantial reduction in parasitemia
asexual growth of 3D7 after 12- and 24-h treatments ([12]; 10-100 nM, parasitemia immediately after treatment): significantly inhibited the asexual growth of 3D7 parasites
